Test results: article PMC9896555, “Cyclic Acetals as Novel Long-Lasting Mosquito Repellents” (Journal of Agricultural and Food Chemistry, 2023)

How the values were obtained:
Aedes albopictus [1] = assay: Protection time at 0.17 mg/cm2, human-bait technique; type: in vivo; settings: for Average PT >95% (% coefficient of variation) / Estimated 100% PT (complete protection time, mean±SE): at the dose of 0.17mg/cm2; for Estimated 100% PT (complete protection time, mean±SE): Kaplan–Meier estimate
Protocol: To evaluate the protection time of derivatives, the PE % was measured with 100 μL of a 5% ethanol solution, corresponding to 0.17 mg/cm^2 of exposed skin, under the same laboratory conditions. Mosquito-exposed skin was treated with 100 μL of ethanol, as the negative hand control. For each volunteer (up to 8), the test was performed every hour, up to 8 h from the application. The protection time of DEET and Icaridin was measured under the same conditions. Since these trials were run in parallel with those aimed to profile the cytotoxicity of the compounds (paragraph 2.6), we interrupted the experiments for those compounds showing to have higher cytotoxicity than Icaridin and DEET as soon as the results were available. For this reason, the number of volunteers differs among the compounds.
The average time until protection which was higher than 95% protection time was considered for each compound. Moreover, for the compounds tested on at least three volunteers, the complete (100%) protection time was also estimated (SPSS 28.01.0) using the Kaplan–Meier survivor function procedure.[22]

Aedes albopictus [2] = assay: Effective dose / protection efficacy, human-bait technique; type: in vivo; settings: for 100% PE: Table S1; for Protection efficacy (dose to obtain complete protection (100%) from bite attempts): applied on skin of volunteers, 3 min exposure
Protocol: The repellence of DEET, Icaridin (both supplied by Istituto Biochimico VEBI s.r.l.), acetals, and the synthesized hydroxyacetals was evaluated againstAedes albopictususing the human-bait technique (to simulate the condition of human skin on which repellents will be applied).[22]A. albopictuswas reared and tested at 26 ± 2 °C, ≥60 ± 10% relative humidity (RH), and at 14:10 h light/dark photoperiod, within Plexiglas cylindrical laboratory cages (35 cm diameter, 60 cm length) with one end closed by a net. During the tests, cages contained ≈150 nulliparous, 4–7 day-old, nonblood-fed females. For each compound to be tested, up to six volunteers participated in the trial.
The study was approved by the Regional Ethics Committee for Clinical Trials of Tuscany Region with the registered number 20383. Volunteers agreed to take part in the experiments following informed consent; only volunteers non-allergic to mosquito bites participated in the trials. On the day of the bioassay, they had no contact with lotions, perfumes, oils, or perfumed soaps. They wore latex surgical gloves, in which a dorsal square area of 30 cm^2 was cut open. Mosquito-exposed skin was treated with 50 μL of ethanol, as the negative hand control. The other hand was treated with 50 μL of the tested compounds in ethanol solution (dosages corresponding to 0.081, 0.17, 0.33, 0.5, 0.83, 1.7, 8.3, 16.7, and 83.3 μg/cm^2). Both hands were presented in the same test cage. The number of probing mosquitoes in a 3 min exposure period was recorded. During each test, the control and the treated hand were presented interchanged to verify the mosquitoes’ readiness to bite. Trials were considered valid only if at least 30 mosquitoes performed probing behavior on the control hand before each repellent dosage was tested. The protection efficacy (PE %) obtained from all replicates was calculated, according to the WHO guidelines[31] using this formula [drawing 1]
To evaluate the protection efficacy, volunteers applied increasing doses of the compounds to the skin on the back of their hands (30 cm^2, while the rest was covered with a rubber glove) and counted the number of mosquitoes attempting to bite; the solvent only was used on the control hand. The protection (percentage of repelled mosquitoes) was calculated as reported in the Material and Methods section.

CCCCCC1(CCCCC)OCC(CO)O1 (racemic) [23a]
Protection time PE% (Aedes albopictus [1]; 0.17mg/cm2, 0 min): 100% | Protection time PE% (Aedes albopictus [1]; 0.17mg/cm2, 1 h): 99.62% | Protection time PE% (Aedes albopictus [1]; 0.17mg/cm2, 2 h): 98.79% | Protection time PE% (Aedes albopictus [1]; 0.17mg/cm2, 3 h): 97.92% | Protection time PE% (Aedes albopictus [1]; 0.17mg/cm2, 4 h): 98.99% | Protection time PE% (Aedes albopictus [1]; 0.17mg/cm2, 5 h): 88.68% | Protection time PE% (Aedes albopictus [1]; 0.17mg/cm2, 6 h): 97.92% | Protection time PE% (Aedes albopictus [1]; 0.17mg/cm2, 7 h): 92.53% | Protection time PE% (Aedes albopictus [1]; 0.17mg/cm2, 8 h): 92.80% | Average PT >95% (% coefficient of variation) (Aedes albopictus [1]): 360 (4.8) min | Estimated 100% PT (complete protection time, mean±SE) (Aedes albopictus [1]): 240 ± 65 min | Protection efficacy PE% (Aedes albopictus [2]; 0.081 µg/cm2): 33.33% | Protection efficacy PE% (Aedes albopictus [2]; 0.17 µg/cm2): 54.16% | Protection efficacy PE% (Aedes albopictus [2]; 0.33 µg/cm2): 97.01% | Protection efficacy PE% (Aedes albopictus [2]; 0.5 µg/cm2): 76.81% | Protection efficacy PE% (Aedes albopictus [2]; 0.83 µg/cm2): 76.67% | Protection efficacy PE% (Aedes albopictus [2]; 1.7 µg/cm2): 93.75% | Protection efficacy PE% (Aedes albopictus [2]; 8.3 µg/cm2): 88.23% | Protection efficacy PE% (Aedes albopictus [2]; 16.7 µg/cm2): 98.04% | Protection efficacy PE% (Aedes albopictus [2]; 83.3 µg/cm2): 100% | 100% PE (Aedes albopictus [2]): 83.3 µg/cm2

CCCCCCCC1OCC(CO)O1 (mixture of isomers) [9a]
Protection time PE% (Aedes albopictus [1]; 0.17mg/cm2, 0 min): 100% | Protection time PE% (Aedes albopictus [1]; 0.17mg/cm2, 1 h): 99.77% | Protection time PE% (Aedes albopictus [1]; 0.17mg/cm2, 2 h): 99.42% | Protection time PE% (Aedes albopictus [1]; 0.17mg/cm2, 3 h): 100% | Protection time PE% (Aedes albopictus [1]; 0.17mg/cm2, 4 h): 100% | Protection time PE% (Aedes albopictus [1]; 0.17mg/cm2, 5 h): 99.61% | Protection time PE% (Aedes albopictus [1]; 0.17mg/cm2, 6 h): 95.75% | Protection time PE% (Aedes albopictus [1]; 0.17mg/cm2, 7 h): 95.88% | Protection time PE% (Aedes albopictus [1]; 0.17mg/cm2, 8 h): 94.12% | Average PT >95% (% coefficient of variation) (Aedes albopictus [1]): 420 (4.5) min | Estimated 100% PT (complete protection time, mean±SE) (Aedes albopictus [1]): 307 ± 53 min | Protection time (95% protection) (Aedes albopictus [1]; dose of 0.17 mg/cm^2, tests ended after 8 h): 7 h | Protection efficacy PE% (Aedes albopictus [2]; 0.081 µg/cm2): 0% | Protection efficacy PE% (Aedes albopictus [2]; 0.17 µg/cm2): 33.33% | Protection efficacy PE% (Aedes albopictus [2]; 0.33 µg/cm2): 72.85% | Protection efficacy PE% (Aedes albopictus [2]; 0.5 µg/cm2): 74.69% | Protection efficacy PE% (Aedes albopictus [2]; 0.83 µg/cm2): 82.72% | Protection efficacy PE% (Aedes albopictus [2]; 1.7 µg/cm2): 90.12% | Protection efficacy PE% (Aedes albopictus [2]; 8.3 µg/cm2): 100% | Protection efficacy PE% (Aedes albopictus [2]; 16.7 µg/cm2): 100% | Protection efficacy PE% (Aedes albopictus [2]; 83.3 µg/cm2): 100% | 100% PE (Aedes albopictus [2]): 8.3 µg/cm2 | Protection efficacy (dose to obtain complete protection (100%) from bite attempts) (Aedes albopictus [2]): 8.3 μg/cm^2

CCCCCCCCCC1OCC(CO)O1 (mixture of isomers) [18a]
Protection time PE% (Aedes albopictus [1]; 0.17mg/cm2, 0 min): 100% | Protection time PE% (Aedes albopictus [1]; 0.17mg/cm2, 1 h): 97.63% | Protection time PE% (Aedes albopictus [1]; 0.17mg/cm2, 2 h): 100% | Protection time PE% (Aedes albopictus [1]; 0.17mg/cm2, 3 h): 98.31% | Protection time PE% (Aedes albopictus [1]; 0.17mg/cm2, 4 h): 99.28% | Protection time PE% (Aedes albopictus [1]; 0.17mg/cm2, 5 h): 99.23% | Protection time PE% (Aedes albopictus [1]; 0.17mg/cm2, 6 h): 97.68% | Protection time PE% (Aedes albopictus [1]; 0.17mg/cm2, 7 h): 92.86% | Protection time PE% (Aedes albopictus [1]; 0.17mg/cm2, 8 h): 95.18% | Average PT >95% (% coefficient of variation) (Aedes albopictus [1]): 420 (2.1) min | Estimated 100% PT (complete protection time, mean±SE) (Aedes albopictus [1]): 190 ± 50 min | Protection efficacy PE% (Aedes albopictus [2]; 0.081 µg/cm2): 22.98% | Protection efficacy PE% (Aedes albopictus [2]; 0.17 µg/cm2): 41.74% | Protection efficacy PE% (Aedes albopictus [2]; 0.33 µg/cm2): 40.93% | Protection efficacy PE% (Aedes albopictus [2]; 0.5 µg/cm2): 77.98% | Protection efficacy PE% (Aedes albopictus [2]; 0.83 µg/cm2): 69.25% | Protection efficacy PE% (Aedes albopictus [2]; 1.7 µg/cm2): 87.67% | Protection efficacy PE% (Aedes albopictus [2]; 8.3 µg/cm2): 95.83% | Protection efficacy PE% (Aedes albopictus [2]; 16.7 µg/cm2): 100% | Protection efficacy PE% (Aedes albopictus [2]; 83.3 µg/cm2): 100% | Protection efficacy (dose to obtain complete protection (100%) from bite attempts) (Aedes albopictus [2]): 16.7 μg/cm^2
